The results in this text go back to PubChem BioAssay (NCI).

Several values for one entry are separate records, joined by “and”; a condition that tells them apart may be missing. Equal entries are not always repeated.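 All cell lines were grown in 96-well plates and treated with compound for 48 hours. GI50 is the concentration that inhibits growth by half. TGI: concentration producing complete growth inhibition.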

Among the test systems are A498 renal; CAKI-1 renal; EKVX NSCLC; K-562 leukemia; MOLT-4 leukemia; NCI-H522 lung; OVCAR-4 ovarian; OVCAR-5 ovarian; SK-OV-3 ovarian; TK-10 renal.
Holding throughout (experiment): NCI anticancer screen, dose series, 48 h

For `O=C1NC(N/N=C\C(O)C(O)C(O)C(O)CO)=N/C1=C/c1ccccc1` (stereo not given), the GI50 in the assay on A498 renal was 45.2 µM and 15.8 µM and > 100 µM; in the assay with CAKI-1 renal, > 100 µM and 19.4 µM; with EKVX NSCLC, > 100 µM and 19.9 µM; with K-562 leukemia it was 67.6 µM and 33.8 µM and 28.8 µM; in the assay on MOLT-4 leukemia it was 22.3 µM and 2.74 µM and 25.7 µM; in the assay on NCI-H522 lung, 96.5 µM and 18.6 µM and > 100 µM. Besides, the GI50 in the assay with OVCAR-4 ovarian is 52.7 µM and 14.5 µM and > 100 µM; in the assay on OVCAR-5 ovarian it was > 100 µM and 24.4 µM; with SK-OV-3 ovarian, > 100 µM and 20.2 µM; in the assay on TK-10 renal it was > 100 µM and 19 µM. Also, the TGI in the assay with A498 renal is > 100 µM and 39.5 µM; in the assay with CAKI-1 renal, > 100 µM and 38.1 µM; in the assay with EKVX NSCLC, > 100 µM and 51 µM; in the assay with K-562 leukemia, over 100 µM; in the assay with NCI-H522 lung, > 100 µM and 40.5 µM; with OVCAR-4 ovarian it was > 100 µM and 33.8 µM. Further, the TGI was > 100 µM and 44.9 µM in the assay with OVCAR-5 ovarian; > 100 µM and 37.8 µM in the assay on SK-OV-3 ovarian; > 100 µM and 48.3 µM in the assay on TK-10 renal.
Regarding `CC(C)N(C(=O)c1cccc(C(=O)N(C(C)C)C(C)C)c1)C(C)C`, the TGI in the assay with A498 renal, with CAKI-1 renal, in the assay on EKVX NSCLC, in the assay on K-562 leukemia, in the assay with MOLT-4 leukemia and with NCI-H522 lung was over 100 µM each time. Further, the TGI with OVCAR-4 ovarian, in the assay with OVCAR-5 ovarian, in the assay with SK-OV-3 ovarian and in the assay with TK-10 renal was over 100 µM throughout.
In the case of `COC(=O)c1cc(-c2ccccc2)[nH]c1N/N=C/c1c(Cl)cccc1Cl`, the GI50 with A498 renal was 0.198 µM; in the assay on CAKI-1 renal, 0.354 µM; in the assay with EKVX NSCLC it was 0.454 µM; in the assay with K-562 leukemia it was 0.729 µM; in the assay on MOLT-4 leukemia it was 0.437 µM; in the assay on NCI-H522 lung, 0.26 µM. Besides, the GI50 in the assay on OVCAR-4 ovarian is 0.729 µM; with OVCAR-5 ovarian it was 0.732 µM; with SK-OV-3 ovarian it was 0.39 µM; in the assay with TK-10 renal, 0.392 µM. Also, the TGI in the assay with A498 renal was 0.704 µM; in the assay on CAKI-1 renal it was 4.39 µM; in the assay on EKVX NSCLC, over 37.3 µM; with K-562 leukemia, over 100 µM; in the assay on MOLT-4 leukemia it was over 100 µM; in the assay on OVCAR-4 ovarian, over 28.6 µM. Moreover, the figures for the TGI in the assay on OVCAR-5 ovarian, with SK-OV-3 ovarian and in the assay on TK-10 renal were 16.7 µM, 3.26 µM and 2.4 µM, respectively.
Take `CC1=CC2C(C(O)CC3(C)C2CC(C)C32OCOC23COCO3)C2(C)C/C(=C/O)C(=O)C=C12` (stereo not given): the GI50 in the assay with A498 renal is 2.83 µM; with CAKI-1 renal it was 1.94 µM; with EKVX NSCLC, 2.31 µM; in the assay on K-562 leukemia it was 2.09 µM; with MOLT-4 leukemia, 1.97 µM; in the assay on NCI-H522 lung it was 1.79 µM. For the same compound, the GI50 in the assay with OVCAR-4 ovarian is 1.74 µM; in the assay with OVCAR-5 ovarian, 1.98 µM; in the assay with SK-OV-3 ovarian it was 2.73 µM; with TK-10 renal, 1.91 µM. Also, the TGI in the assay with A498 renal came to 14.8 µM; with CAKI-1 renal it was 3.8 µM; in the assay on EKVX NSCLC, 7.48 µM; in the assay with K-562 leukemia it was 5.73 µM; with MOLT-4 leukemia it was 4.9 µM; in the assay with NCI-H522 lung, 3.47 µM. In addition, the TGI in the assay with OVCAR-4 ovarian amounted to 3.83 µM; in the assay on OVCAR-5 ovarian, 3.92 µM; in the assay with SK-OV-3 ovarian, 6.42 µM; in the assay on TK-10 renal, 3.59 µM.
`C=CO/N=[N+](\[O-])N(CC)CC`: the TGI in the assay on A498 renal, with CAKI-1 renal, in the assay on EKVX NSCLC, with K-562 leukemia, with MOLT-4 leukemia and in the assay with NCI-H522 lung was over 100 µM throughout. Besides, the TGI in the assay with OVCAR-4 ovarian, with OVCAR-5 ovarian, in the assay with SK-OV-3 ovarian and with TK-10 renal was over 100 µM in each case.
As for `CCC[CH2][Sn]([CH2]CCC)([O]C(=O)c1cc(OC)c(OC)cc1OC)[O][Sn]([CH2]CCC)([CH2]CCC)[O]C(=O)c1cc(OC)c(OC)cc1OC`, the GI50 is 0.508 µM in the assay with A498 renal; 0.161 µM with CAKI-1 renal; 1.7 µM with EKVX NSCLC; 0.0812 µM in the assay with K-562 leukemia; 0.101 µM in the assay with MOLT-4 leukemia; 1.33 µM in the assay on OVCAR-4 ovarian. The GI50 is 1.75 µM with OVCAR-5 ovarian, 1.21 µM with SK-OV-3 ovarian and 1.53 µM with TK-10 renal. The TGI was determined as 1.76 µM with A498 renal; 0.686 µM in the assay with CAKI-1 renal; 3.09 µM in the assay with EKVX NSCLC; 8.43 µM in the assay with K-562 leukemia; 0.786 µM in the assay with MOLT-4 leukemia; 0.0556 µM in the assay on NCI-H522 lung. The TGI in the assay on OVCAR-4 ovarian was 2.96 µM; in the assay on OVCAR-5 ovarian, 3.14 µM; with SK-OV-3 ovarian, 2.58 µM; with TK-10 renal, 2.86 µM.
In the case of `O=C(/C=C(\O)C(=O)O)/C=C(\O)c1ccccc1`, the TGI was over 100 µM with A498 renal; over 100 µM in the assay on CAKI-1 renal; over 100 µM in the assay with EKVX NSCLC; over 100 µM in the assay with K-562 leukemia; over 100 µM with MOLT-4 leukemia; over 1 µM with NCI-H522 lung. Also, the TGI with OVCAR-4 ovarian, in the assay on OVCAR-5 ovarian, in the assay on SK-OV-3 ovarian and in the assay on TK-10 renal was over 100 µM each time. The GI50 in the assay with EKVX NSCLC was over 1 µM; with K-562 leukemia it was over 1 µM; in the assay with MOLT-4 leukemia, over 1 µM; with NCI-H522 lung, over 1 µM; in the assay on OVCAR-4 ovarian it was over 1 µM; with OVCAR-5 ovarian, over 100 µM. In addition, the GI50 in the assay with SK-OV-3 ovarian and in the assay on TK-10 renal was over 1 µM in each case.
As for `O=[N+]([O-])c1cccc(/C=N/NC2=CS(=O)(=O)C=C2)c1`, the TGI with A498 renal, with CAKI-1 renal, in the assay with EKVX NSCLC, in the assay with K-562 leukemia, with MOLT-4 leukemia and with NCI-H522 lung was over 100 µM each time. For the same compound, the TGI with OVCAR-4 ovarian, in the assay with OVCAR-5 ovarian, in the assay with SK-OV-3 ovarian and with TK-10 renal was over 100 µM throughout.
In the case of `O=C1CCc2c(sc3[nH]c(=S)n(-c4cc(C(F)(F)F)cc(C(F)(F)F)c4)c(=O)c23)C1`, the GI50 is 2.15 µM in the assay on A498 renal; 0.377 µM with CAKI-1 renal; 0.378 µM with EKVX NSCLC; 0.185 µM in the assay on K-562 leukemia; 0.636 µM in the assay with MOLT-4 leukemia; 0.344 µM in the assay on NCI-H522 lung. The GI50 is 0.359 µM in the assay with OVCAR-4 ovarian, 0.438 µM in the assay on OVCAR-5 ovarian, 0.947 µM in the assay with SK-OV-3 ovarian and 0.874 µM with TK-10 renal. Besides, the TGI in the assay with A498 renal is 7.44 µM; with CAKI-1 renal, 4.54 µM; with EKVX NSCLC, 5.14 µM; with K-562 leukemia it was over 73.1 µM; with MOLT-4 leukemia, 9.15 µM; in the assay on NCI-H522 lung it was 1.5 µM. In addition, the TGI with OVCAR-4 ovarian was 1.72 µM; with OVCAR-5 ovarian, 2.19 µM; in the assay with SK-OV-3 ovarian, 5.54 µM; in the assay with TK-10 renal, over 44.1 µM.
